Assay results published in publication PMC7470138, “Novel heterocyclic hybrids of pyrazole targeting dihydrofolate reductase: design, biological evaluation and in silico studies” (Journal of Enzyme Inhibition and Medicinal Chemistry, 2020).
Converted amounts (≈) assume the structure as drawn.

Tests used:
[1] = tested on: all tested strains (S. pneumoniae, B. subtilis, P. aeruginosa, E. coli, A. fumigates, C. albicans); assay: Antimicrobial sensitivity assay, agar well diffusion (inhibition zone); format: cell-based; conditions: tested bacteria and fungi
S. pneumonia RCMB 010010 = assay: Minimum inhibitory concentration (MIC), antibacterial; format: cell-based, Streptococcus pneumoniae; conditions: S. pneumonia RCMB 010010, Gram-positive, mean of three values; for MIC: Streptococcus pneumoniae, RCMB010010, read-out: MIC (Mean ± SEM)
C. albicans RCMB 005036 = assay: Minimum inhibitory concentration (MIC), antifungal; format: cell-based; conditions: Candida albicans, RCMB005036; C. albicans RCMB 005036, fungi; mean of three values; read-out: MIC (Mean ± SEM)
A. fumigatus RCMB 002568 = assay: Minimum inhibitory concentration (MIC), antifungal; format: cell-based, Aspergillus fumigates; conditions: A. fumigatus RCMB 002568, fungi, mean of three values; for MIC: Aspergillus fumigatus, RCMB002568, read-out: MIC (Mean ± SEM)
B. subtilis RCMB 010067 = assay: Minimum inhibitory concentration (MIC), antibacterial; format: cell-based; conditions: Bacillus subtilis, RCMB010067; B. subtilis RCMB 010067, Gram-positive; mean of three values; read-out: MIC (Mean ± SEM)
E. coli RCMB 010052 = assay: as above; format: cell-based; conditions: Escherichia coli, RCMB010052; E. coli RCMB 010052, Gram-negative; mean of three values; read-out: MIC (Mean ± SEM)
[2] = tested on: P. aeruginosa RCMB 010043; assay: as above; format: cell-based; conditions: Pseudomonas aeruginosa, RCMB010043; P. aeruginosa RCMB 010043, Gram-negative; mean of three values; read-out: MIC (Mean ± SEM)
[3] = target: T1, dihydrofolate reductase (DHFR) (Homo sapiens, UniProt P00374); assay: In vitro enzyme assay on dihydrofolate reductase (DHFR); format: biochemical; conditions: absorbance at 340 nm, 22 °C, mean of three values, read-out: IC50 (Mean ± SEM) DHFR
T1 sequence (P00374 1-187): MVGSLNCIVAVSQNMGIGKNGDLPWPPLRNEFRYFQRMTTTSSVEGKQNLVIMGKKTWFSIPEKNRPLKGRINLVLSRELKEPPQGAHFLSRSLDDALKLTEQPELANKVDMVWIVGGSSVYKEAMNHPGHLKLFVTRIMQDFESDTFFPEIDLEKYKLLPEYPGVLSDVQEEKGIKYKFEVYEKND

melting point [°C]	MIC (Mean ± SEM) (S. pneumonia RCMB 010010) [µg/mL]	MIC (S. pneumonia RCMB 010010) [µg/mL]	MIC (C. albicans RCMB 005036) [µg/mL]	MIC (Mean ± SEM) (A. fumigatus RCMB 002568) [µg/mL]	MIC (A. fumigatus RCMB 002568) [µg/mL]	MIC (B. subtilis RCMB 010067) [µg/mL]	MIC (E. coli RCMB 010052) [µg/mL]	MIC [2] [µg/mL]	IC50 [3] [µM]	Structure (SMILES)	antimicrobial activity (in words) [1]
282 to 284										Cc1n[nH]c2c(C#N)c(=O)n(-c3cccc4ccccc34)nc12 [Compound 6d, 3-Methyl-5-(naphthalen-1-yl)-6-oxo-5,6-dihydro-1H-pyrazolo[4,3-c]pyridazine-7-carbonitrile]	either inactive or less active
288 to 290										Cc1nnc2c(C#N)c(N)n(-c3cccc4ccccc34)nc1-2 [Compound 6c, 6-Amino-3-methyl-5-(naphthalen-1-yl)-5H-pyrazolo[4,3-c]pyridazine-7-carbonitrile]	either inactive or less active
	1.95 (≈ 5.9 µM)	1.95 ± 0.4 (≈ 5.9 µM)	7.81 ± 0.05 (≈ 23.6 µM)	1.95 (≈ 5.9 µM)	1.95 ± 0.3 (≈ 5.9 µM)	0.98 ± 0.1 (≈ 2.97 µM)	0.98 ± 0.1 (≈ 2.97 µM)	62.5 ± 0.3 (≈ 189 µM)	5.24 ± 0.37	Cc1n[nH]c2c(C#N)c(=O)n(-c3ccc(S(N)(=O)=O)cc3)nc12 [Compound 6b, 4-(7-Cyano-3-methyl-6-oxo-1,6-dihydro-5H-pyrazolo[4,3-c]pyridazin-5-yl)benzenesulphonamide]	highly active
> 300		3.9 ± 0.3 (≈ 14 µM)	7.81 ± 0.2 (≈ 28.1 µM)		250 ± 0.2 (≈ 898 µM)	1.95 ± 0.08 (≈ 7.01 µM)	1.95 ± 0.3 (≈ 7.01 µM)	15.6 ± 0.5 (≈ 56.2 µM)	1.45 ± 0.23	Cc1n[nH]c2nn(-c3ccc(S(N)(=O)=O)cc3)nc12 [Compound 9a, 4-(6-Methylpyrazolo[3,4-d][1,2,3]triazol-2(4H)-yl)benzenesulphonamide]	highly active
257 to 259										Cc1nnc2n(-c3ccccc3)c(=S)n(-c3cccc4ccccc34)nc1-2 [Compound 8b, 7-Methyl-2-(naphthalen-1-yl)-4-phenyl-2,4-dihydro-3H-pyrazolo[3,4-e][1,2,4]triazine-3-thione]	either inactive or less active
	0.98 (≈ 2.96 µM)	0.98 ± 0.2 (≈ 2.96 µM)				0.1 ± 0.3 (≈ 0.302 µM)	0.01 ± 0.1 (≈ 0.0302 µM)	0.5 ± 0.05 (≈ 1.51 µM)		O=C(O)c1cn(C2CC2)c2cc(N3CCNCC3)c(F)cc2c1=O [Ciprofloxacin, reference compound]	
			3.9 ± 0.1 (≈ 4.22 µM)	1.95 (≈ 2.11 µM)	1.95 ± 0.3 (≈ 2.11 µM)					C[C@@H]1[C@H](O)[C@@H](C)/C=C/C=C/C=C/C=C/C=C/C=C/C=C/[C@H](O[C@@H]2O[C@H](C)[C@@H](O)[C@H](N)[C@@H]2O)C[C@@H]2O[C@](O)(C[C@@H](O)C[C@@H](O)[C@H](O)CC[C@@H](O)C[C@@H](O)CC(=O)O[C@H]1C)C[C@H](O)[C@H]2C(=O)O [Amphotericin B, reference compound]	
275 to 277		15.6 ± 0.5 (≈ 39.2 µM)	62.5 ± 0.5 (≈ 157 µM)		3.9 ± 0.1 (≈ 9.79 µM)	125 ± 0.4 (≈ 314 µM)	62.5 ± 0.3 (≈ 157 µM)	125 ± 0.3 (≈ 314 µM)	1.36 ± 0.12	Cc1nnc2n(-c3ccccc3)c(=S)n(-c3ccc(S(N)(=O)=O)cc3)nc1-2 [Compound 8a, 4-(7-Methyl-4-phenyl-3-thioxo-3,4-dihydro-2H-pyrazolo[3,4-e][1,2,4]triazin-2-yl)benzenesulphonamide]	highly active
	1.95 (≈ 6.93 µM)	1.95 ± 0.3 (≈ 6.93 µM)	3.9 ± 0.3 (≈ 13.9 µM)	1.95 (≈ 6.93 µM)	1.95 ± 0.1 (≈ 6.93 µM)	0.98 ± 0.1 (≈ 3.48 µM)	0.98 ± 0.6 (≈ 3.48 µM)	7.81 ± 0.3 (≈ 27.8 µM)		CC1=NNC(=O)C1=NNc1ccc(S(N)(=O)=O)cc1 [Compound 3a, 4-(2-(3-Methyl-5-oxo-1,5-dihydro-4H-pyrazol-4-ylidene)hydrazineyl)benzenesulfonamide]	
> 300										Cc1n[nH]c2nn(-c3cccc4ccccc34)nc12 [Compound 9b, 6-Methyl-2-(naphthalen-1-yl)-2,4-dihydropyrazolo[3,4-d][1,2,3]triazole]	either inactive or less active
		0.98 ± 0.1 (≈ 2.98 µM)	3.9 ± 0.03 (≈ 11.8 µM)		0.98 ± 0.2 (≈ 2.98 µM)	0.49 ± 0.2 (≈ 1.49 µM)	0.49 ± 0.4 (≈ 1.49 µM)	3.9 ± 0.1 (≈ 11.8 µM)		Cc1nnc2c(C#N)c(N)n(-c3ccc(S(N)(=O)=O)cc3)nc1-2 [Compound 6a, 4-(6-Amino-7-cyano-3-methyl-5H-pyrazolo[4,3-c]pyridazin-5-yl)benzenesulphonamide]	highly active
189 to 191		7.81 ± 0.1 (≈ 31 µM)	62.5 ± 0.1 (≈ 248 µM)		125 ± 0.2 (≈ 495 µM)	15.6 ± 0.5 (≈ 62 µM)	250 ± 0.5 (≈ 991 µM)	125 ± 0.3 (≈ 495 µM)	18.3 ± 0.81	CC1=NNC(=O)C1=NNc1cccc2ccccc12 [Compound 3b, 5-Methyl-4–(2-(naphthalene-1-yl)hydrazineylidene)-2,4-dihydro-3H-pyrazol-3-one]	
